Patent US20250368678A1, “19-NOR-C3,3-DISUBSTITUTED C21-AZACYCLO-S[…] AND METHOD FOR USING SAME” (SHANDONG LUYE PHARMACEUTICAL CO., LTD., priority 2022, published 2025)

Legend:
[1] = biological target: T1, α4β3δ GABA receptors (α4β3δ-HEK-FlpIn-TRex stable cell strain) (Homo sapiens, UniProt P28472+P48169); assay: Whole-cell patch clamp, extrasynaptic functional activity (positive allosteric regulation of GABA-induced current); assay type: cell-based; settings: patch clamp -60 mV, GABA at EC10-20, α4β3δ-HEK-FlpIn-TRex cells
T1 construct: expressed in transfected cells
T1 sequence (P48169 36-554): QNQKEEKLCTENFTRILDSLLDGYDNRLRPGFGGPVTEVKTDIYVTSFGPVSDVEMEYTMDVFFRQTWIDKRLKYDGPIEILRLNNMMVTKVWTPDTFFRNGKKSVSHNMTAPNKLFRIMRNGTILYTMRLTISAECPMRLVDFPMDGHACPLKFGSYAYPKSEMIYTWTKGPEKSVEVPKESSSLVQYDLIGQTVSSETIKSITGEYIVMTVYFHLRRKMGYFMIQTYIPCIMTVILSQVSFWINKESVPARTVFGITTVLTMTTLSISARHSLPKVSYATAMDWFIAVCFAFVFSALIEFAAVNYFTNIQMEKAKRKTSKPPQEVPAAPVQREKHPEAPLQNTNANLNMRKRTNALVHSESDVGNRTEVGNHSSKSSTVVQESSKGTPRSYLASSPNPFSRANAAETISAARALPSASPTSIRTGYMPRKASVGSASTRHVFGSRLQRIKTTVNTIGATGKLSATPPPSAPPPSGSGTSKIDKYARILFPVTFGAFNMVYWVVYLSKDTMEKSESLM
T1 sequence (P28472 26-473): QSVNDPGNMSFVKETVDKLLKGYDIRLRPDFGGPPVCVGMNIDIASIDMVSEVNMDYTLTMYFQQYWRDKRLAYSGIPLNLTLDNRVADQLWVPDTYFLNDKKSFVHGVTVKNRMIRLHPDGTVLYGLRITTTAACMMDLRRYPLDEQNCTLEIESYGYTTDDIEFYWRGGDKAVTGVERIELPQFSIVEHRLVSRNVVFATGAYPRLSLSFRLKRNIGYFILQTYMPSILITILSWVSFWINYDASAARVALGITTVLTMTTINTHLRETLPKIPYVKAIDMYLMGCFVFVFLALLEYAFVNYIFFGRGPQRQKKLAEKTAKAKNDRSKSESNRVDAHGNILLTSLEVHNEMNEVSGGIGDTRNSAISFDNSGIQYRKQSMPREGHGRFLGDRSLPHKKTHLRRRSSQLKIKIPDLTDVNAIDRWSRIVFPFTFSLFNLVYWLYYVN
T1 sequence (O14764 25-452 partner): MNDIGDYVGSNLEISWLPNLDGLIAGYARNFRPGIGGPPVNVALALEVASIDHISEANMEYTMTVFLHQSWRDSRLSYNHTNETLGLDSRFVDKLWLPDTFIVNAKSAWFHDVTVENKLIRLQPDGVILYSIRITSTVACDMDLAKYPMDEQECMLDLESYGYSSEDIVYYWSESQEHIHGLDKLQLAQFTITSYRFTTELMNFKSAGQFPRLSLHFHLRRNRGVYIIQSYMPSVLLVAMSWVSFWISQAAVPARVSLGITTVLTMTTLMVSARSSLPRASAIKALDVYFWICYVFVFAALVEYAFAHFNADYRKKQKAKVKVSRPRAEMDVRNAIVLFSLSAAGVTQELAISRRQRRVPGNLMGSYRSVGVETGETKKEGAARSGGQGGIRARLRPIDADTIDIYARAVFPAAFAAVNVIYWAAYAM
Method: (§1) The α4β3δ-HEK-FlpIn-TRex stable cell strain was cultured in DMEM+10% FBS complete culture medium, with the selective antibiotics being 10 μg/mL Blasticidin, 100 µg/mL Zeocin, 100 µg/mL Hygromycin, and 0.2 μg/mL Puromycin. The α1β2γ2-CHO-TRex stable cell strain was cultured in DMEM/F12+10% FBS complete culture medium, with the selective antibiotics being 10 μg/mL Blasticidin, 100 μg/mL Zeocin, 300 μg/mL Hygromycin, and […] Puromycin.
(§2) The day before the patch clamp experiment, cells were seeded onto 12 mm polylysine-coated coverslips and then cultured in 35 mm culture dishes, and tetracycline ([…]) was added to induce the expression of GABA receptors. The extracellular fluid had the following composition (in mM): 140 NaCl, 3 KCl, 1.5 MgCl2, 2 CaCl2, 10 HEPES, and 10 Glucose. After thorough mixing, NaOH was added to adjust the pH to 7.4, and sucrose was added to adjust the osmotic pressure to 300-320 mOsm. The fluid was stored at 4° C. The electrode internal solution had the following composition (in mM): 145 KCl, 1 MgCl2, 5 EGTA, 10 HEPES, and 5 MgATP. After thorough mixing, KOH was added to adjust the pH to 7.3, and sucrose was added to adjust the osmotic pressure to 290-300 mOsm. The solution was filtered through a […] before use.
(§3) Whole-cell patch clamp recording was mainly employed in this experiment. The membrane potential was clamped at −60 mV, and receptors were activated using GABA at an EC10-20 concentration ([…]). The test compounds were dissolved in 0.1% DMSO, and perfusion was performed for 30 s prior to GABA stimulation. Finally, the positive allosteric regulating effects of the test compounds on α1β2γ2 or α4β3δ were determined.
(§4) The experimental result for each concentration was expressed as a fold increase in the GABA-induced current caused by the compound. […] At least 5 concentrations are tested to obtain a complete EC50 curve and EC50 values. All experiments were repeated on no less than 3 cells, and data processing was completed using GraphPad prism software. The dose-response curves were fitted using the Hill equation, and the half-maximal activating concentration EC50 and Emax were finally obtained.

[2] = In vitro liver microsomal stability assay, human; assay type: in vitro ADME; settings: for CLint scaled at 1 µM / half-life at 1 µM / microsomal CLint at 1 µM / T1/2: Human liver microsomes; for Remaining amount % at 60 min: Human liver microsomes 0.5 mg/mL, NADPH; for microsomal CLint at 1 µM: read-out: CLint(mic)
Method: (§5) 1) Preparation of working solutions of test samples: The test samples were diluted with acetonitrile to 100 M.
(§6) 2) Preparation of a working solution of liver microsomes: liver microsomes were diluted with 100 mM phosphate-buffered saline to 0.56 mg/mL.
(§7) 3) Preparation of a working solution of reduced nicotinamide adenine dinucleotide (NADPH): A proper amount of NADPH was weighed out and diluted with phosphate-buffered saline to 20 mM, and an equal volume of a 60 mM MgCl2 solution was added.
(§8) 4) Preparation of a stop solution: Tolbutamide was diluted with acetonitrile to 20 ng/mL, serving as a stop solution containing an internal standard.
(§9) 1) Incubation anti-adsorption EP tubes were prepared and labeled with species, test/control sample, time points (0, 5, 10, 20, 30, 60 min, Blank60, and NCF60), etc.
(§10) 2) 2 L of test or control sample working solution, diluted with acetonitrile to 100 M, and 178 L of liver microsome working solution were added to each tube. For the Blank60 tube, 2 L of acetonitrile was added instead of a test sample. The tubes were pre-incubated in a 37° C. water bath for about 10 min, with each sample tested in triplicate.
(§11) 3) After the pre-incubation was complete, 20 L of NADPH working solution was added to each tube except for the 0 min and NCF60 tubes to start reactions, and 20 L of phosphate-buffered saline (containing 30 mM MgCl2) was added to the NCF60 tube. In the incubation system, the final concentrations of the test and control samples were 1 M, the final concentration of liver microsomes was 0.5 mg/mL, the final concentration of NADPH was 1 mM, and the final concentration of MgCl2 was 3 mM.
(§12) 4) For the 0 min sample, 600 L of stop solution was added before adding the NADPH working solution. After each sample was incubated for its respective time, 600 L of stop solution was added to stop the reaction.
(§13) 5) After the reaction was stopped, each sample was vortexed for 30 s and then centrifuged at 13,500 rpm for 10 min. 100 L of the supernatant was transferred to an EP tube, and 100 L Milli-Q water was added. The mixture was well mixed by vortexing and analyzed by LC-MS/MS.
(§14) 6) Testosterone and dextromethorphan were used as positive control samples under the same conditions to assess the stability and reliability of the system.
(§15) Parameters of the test samples, including their half-lives, intrinsic clearance rates in liver microsomes, and hepatic intrinsic clearance rates, were calculated based on the percentage of test sample remaining.

[3] = In vitro liver microsomal stability assay, rat; assay type: in vitro ADME; settings: for Remaining amount % at 60 min: Rat liver microsomes 0.5 mg/mL, NADPH; for microsomal CLint at 1 µM: read-out: CLint(mic)
Method: as §5, §6, §7, §8, §9, §10, §11, §12, §13, §14, §15

[4] = biological target: T2, α1β2γ2 GABA receptors (α1β2γ2-CHO-TRex stable cell strain) (Homo sapiens, UniProt P14867+P47870); assay: Whole-cell patch clamp, intrasynaptic functional activity (positive allosteric regulation of GABA-induced current); assay type: cell-based; settings: patch clamp -60 mV, GABA at EC10-20, α1β2γ2-CHO-TRex cells
T2 construct: expressed in transfected cells
T2 sequence (P14867 28-456): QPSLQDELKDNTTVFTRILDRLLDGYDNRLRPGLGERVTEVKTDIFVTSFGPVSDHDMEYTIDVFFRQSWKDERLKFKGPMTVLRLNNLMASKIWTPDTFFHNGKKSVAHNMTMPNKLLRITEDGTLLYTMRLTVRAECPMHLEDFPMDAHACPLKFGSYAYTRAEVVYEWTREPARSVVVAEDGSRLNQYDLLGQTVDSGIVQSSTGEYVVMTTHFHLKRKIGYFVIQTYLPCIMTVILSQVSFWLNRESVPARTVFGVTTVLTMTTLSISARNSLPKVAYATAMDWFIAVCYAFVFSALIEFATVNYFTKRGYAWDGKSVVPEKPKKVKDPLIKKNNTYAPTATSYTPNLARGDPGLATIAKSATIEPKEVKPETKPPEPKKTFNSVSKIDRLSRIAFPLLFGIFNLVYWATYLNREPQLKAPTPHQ
T2 sequence (P47870 25-512 limits assumed): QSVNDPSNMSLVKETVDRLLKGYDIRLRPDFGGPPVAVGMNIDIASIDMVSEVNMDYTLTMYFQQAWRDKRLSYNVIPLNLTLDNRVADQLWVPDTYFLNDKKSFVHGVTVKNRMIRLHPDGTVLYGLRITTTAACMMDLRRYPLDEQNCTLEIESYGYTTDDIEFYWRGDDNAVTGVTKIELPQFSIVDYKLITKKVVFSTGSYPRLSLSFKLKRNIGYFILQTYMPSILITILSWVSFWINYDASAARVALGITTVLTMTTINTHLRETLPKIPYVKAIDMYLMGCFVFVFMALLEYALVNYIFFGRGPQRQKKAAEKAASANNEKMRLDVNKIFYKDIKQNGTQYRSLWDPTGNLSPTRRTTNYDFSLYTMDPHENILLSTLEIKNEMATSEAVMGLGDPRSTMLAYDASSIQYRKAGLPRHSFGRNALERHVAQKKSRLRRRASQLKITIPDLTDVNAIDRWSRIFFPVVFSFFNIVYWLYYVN
T2 sequence (P18507 40-475 partner): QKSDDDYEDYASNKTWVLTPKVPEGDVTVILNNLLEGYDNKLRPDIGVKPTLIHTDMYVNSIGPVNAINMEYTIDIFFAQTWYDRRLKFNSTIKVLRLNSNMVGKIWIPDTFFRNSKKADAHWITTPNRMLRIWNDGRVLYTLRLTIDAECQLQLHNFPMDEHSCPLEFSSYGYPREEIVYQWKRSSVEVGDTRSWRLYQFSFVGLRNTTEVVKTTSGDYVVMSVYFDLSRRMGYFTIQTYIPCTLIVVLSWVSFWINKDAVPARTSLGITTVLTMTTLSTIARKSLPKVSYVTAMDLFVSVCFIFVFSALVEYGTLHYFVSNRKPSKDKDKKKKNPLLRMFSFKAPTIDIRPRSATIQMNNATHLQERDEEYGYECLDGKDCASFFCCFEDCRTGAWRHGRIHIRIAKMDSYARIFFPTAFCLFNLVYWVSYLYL
Method: as §1, §2, §3, §4

## COCCn1ncn(CC(=O)[C@H]2CC[C@H]3[C@@H]4CC[C@@H]5C[C@](C)(O)CC[C@@H]5[C@H]4CC[C@]23C)c1=O [Compound 31]
[1]
  Emax: 609%
[2]
  CLint scaled at 1 µM: 37 mL/min/kg
  half-life at 1 µM: 34.1 min
  Remaining amount % at 60 min: 28.5%
  microsomal CLint at 1 µM: 41 µL/min/mg
[3]; Rat liver microsomes
  CLint scaled at 1 µM: 234 mL/min/kg
  half-life at 1 µM: 10.7 min
  microsomal CLint at 1 µM: 130 µL/min/mg
[3]
  Remaining amount % at 60 min: 2.1%
[4]
  Emax: 735%

## C[C@@]1(O)CC[C@H]2[C@H](CC[C@@H]3[C@@H]2CC[C@]2(C)[C@@H](C(=O)Cn4cnn(-c5nccs5)c4=O)CC[C@@H]32)C1 [Compound 32]
[1]
  EC50: 126 nM
  Emax: 633%
[2]
  CLint scaled at 1 µM: 19 mL/min/kg
  half-life at 1 µM: 64.8 min
  Remaining amount % at 60 min: 66.8%
  microsomal CLint at 1 µM: 21 µL/min/mg
[3]; Rat liver microsomes
  CLint scaled at 1 µM: 152 mL/min/kg
  half-life at 1 µM: 15.4 min
  microsomal CLint at 1 µM: 85 µL/min/mg
[3]
  Remaining amount % at 60 min: 7.7%
[4]
  EC50: 330 nM
  Emax: 763%

## C[C@@]1(O)CC[C@@]2(C)[C@@H](CC[C@@H]3[C@@H]2CC[C@]2(C)[C@@H](C(=O)Cn4cnn(-c5cccc(F)c5)c4=O)CC[C@@H]32)C1 [Compound 33]
[1]
  EC50: 96 nM
  Emax: 936%
[2]
  CLint scaled at 1 µM: < 6.7 mL/min/kg
  half-life at 1 µM: > 186 min
  Remaining amount % at 60 min: 85.8%
  microsomal CLint at 1 µM: < 7.5 µL/min/mg
[3]; Rat liver microsomes
  CLint scaled at 1 µM: 29 mL/min/kg
  half-life at 1 µM: 85.6 min
  microsomal CLint at 1 µM: 16 µL/min/mg
[3]
  Remaining amount % at 60 min: 62.2%
[4]
  EC50: 598 nM
  Emax: 495%

## C[C@@]1(O)CC[C@H]2[C@H](CC[C@@H]3[C@@H]2CC[C@]2(C)[C@@H](C(=O)Cn4cnn(-c5cccc(C#N)c5)c4=O)CC[C@@H]32)C1 [Compound 34]
[1]
  EC50: 50 nM
  Emax: 683%
[2]
  CLint scaled at 1 µM: 7 mL/min/kg
  half-life at 1 µM: 178 min
  Remaining amount % at 60 min: 79.9%
  microsomal CLint at 1 µM: 8 µL/min/mg
[3]; Rat liver microsomes
  CLint scaled at 1 µM: 98 mL/min/kg
  half-life at 1 µM: 25.6 min
  microsomal CLint at 1 µM: 54 µL/min/mg
[3]
  Remaining amount % at 60 min: 20.5%
[4]
  EC50: 112 nM

## Cc1cc(-n2ncn(CC(=O)[C@H]3CC[C@H]4[C@@H]5CC[C@@H]6C[C@](C)(O)CC[C@@H]6[C@H]5CC[C@]34C)c2=O)ccn1 [Compound 36]
[1]
  EC50: 99 nM
  Emax: 745%
[2]
  CLint scaled at 1 µM: 53 mL/min/kg
  half-life at 1 µM: 23 min
  Remaining amount % at 60 min: 15.9%
  microsomal CLint at 1 µM: 59 µL/min/mg
[3]; Rat liver microsomes
  CLint scaled at 1 µM: 125 mL/min/kg
  half-life at 1 µM: 29 min
  microsomal CLint at 1 µM: 69 µL/min/mg
[3]
  Remaining amount % at 60 min: 12.2%
[4]
  EC50: 119 nM
  Emax: 871%

## C[C@@]1(O)CC[C@H]2[C@H](CC[C@@H]3[C@@H]2CC[C@]2(C)[C@@H](C(=O)Cn4cnn(-c5ccnc(OC(F)(F)F)c5)c4=O)CC[C@@H]32)C1 [Compound 38]
[1]
  EC50: 115 nM
  Emax: 625%
[2]
  CLint scaled at 1 µM: < 6.75 mL/min/kg
  half-life at 1 µM: > 186 min
  Remaining amount % at 60 min: 97.3%
  microsomal CLint at 1 µM: < 7.5 µL/min/mg
[3]; Rat liver microsomes
  CLint scaled at 1 µM: 12 mL/min/kg
  half-life at 1 µM: 210 min
  microsomal CLint at 1 µM: 7 µL/min/mg
[3]
  Remaining amount % at 60 min: 82.9%
[4]
  EC50: 55 nM
  Emax: 700%

## C[C@@]1(O)CC[C@H]2[C@H](CC[C@@H]3[C@@H]2CC[C@]2(C)[C@@H](C(=O)Cn4cnn(-c5ccnc(OCC(F)(F)F)c5)c4=O)CC[C@@H]32)C1 [Compound 39]
[1]
  Emax: 967%
[2]
  CLint scaled at 1 µM: 8 mL/min/kg
  T1/2: 154 min
  Remaining amount % at 60 min: 76.2%
  microsomal CLint at 1 µM: 9 µL/min/mg
[3]; Rat liver microsomes
  CLint scaled at 1 µM: < 13.5 mL/min/kg
  half-life at 1 µM: > 186 min
  microsomal CLint at 1 µM: < 7.5 µL/min/mg
[3]
  Remaining amount % at 60 min: 90.6%
[4]
  Emax: 675%

## C[C@@]1(O)CC[C@H]2[C@H](CC[C@@H]3[C@@H]2CC[C@]2(C)[C@@H](C(=O)Cn4cnn(CCOC(F)(F)F)c4=O)CC[C@@H]32)C1 [Compound 43]
[1]
  Emax: 889%
[2]
  CLint scaled at 1 µM: 41 mL/min/kg
  T1/2: 30.7 min
  Remaining amount % at 60 min: 25.97%
  microsomal CLint at 1 µM: 45 µL/min/mg
[3]; Rat liver microsomes
  CLint scaled at 1 µM: 108 mL/min/kg
  T1/2: 23 min
  microsomal CLint at 1 µM: 60 µL/min/mg
[3]
  Remaining amount % at 60 min: 15.74%
[4]
  Emax: 576%

## C[C@@]1(O)CC[C@H]2[C@H](CC[C@@H]3[C@@H]2CC[C@]2(C)[C@@H](C(=O)Cn4cnn(-c5cc(F)cc(C#N)c5)c4=O)CC[C@@H]32)C1 [Compound 44]
[1]
  Emax: 546%
[2]
  CLint scaled at 1 µM: 12 mL/min/kg
  half-life at 1 µM: 102 min
  Remaining amount % at 60 min: 66.67%
  microsomal CLint at 1 µM: 14 µL/min/mg
[3]; Rat liver microsomes
  CLint scaled at 1 µM: 27 mL/min/kg
  half-life at 1 µM: 93.6 min
  microsomal CLint at 1 µM: 15 µL/min/mg
[3]
  Remaining amount % at 60 min: 64.82%
[4]
  Emax: 518%

## CC(C)(C)n1ncn(CC(=O)[C@H]2CC[C@H]3[C@@H]4CC[C@@H]5C[C@](C)(O)CC[C@@H]5[C@H]4CC[C@]23C)c1=O [Compound 45]
[1]
  EC50: 113 nM
  Emax: 749%
[2]
  CLint scaled at 1 µM: 22 mL/min/kg
  half-life at 1 µM: 56.3 min
  Remaining amount % at 60 min: 48.81%
  microsomal CLint at 1 µM: 25 µL/min/mg
[3]; Rat liver microsomes
  CLint scaled at 1 µM: 281 mL/min/kg
  half-life at 1 µM: 8.9 min
  microsomal CLint at 1 µM: 156 µL/min/mg
[3]
  Remaining amount % at 60 min: 7.24%
[4]
  EC50: 121 nM
  Emax: 806%
